Test results as given in patent publication US11407811B2, “Fusion protein, preparation method therefor and use thereof” (JIANGSU RONGTAI BIOTECH CO., LTD., priority 2017, dated 2022).

Key:
mouse spleen lymphocytes = test: Proliferation of mouse spleen lymphocytes (ConA, MTT); assay type: cell-based; details: dose 20 μg/mL
Description: Tris-NH4Cl was used to break the red blood cells, which were allowed to stand in an ice water bath for 4 min and centrifuged (1000 rpm, 5 min), the supernatant was discarded, and the cells were washed twice with sterile PBS.
The cells were statically cultured in a cell incubator at 37° C. for 48 h. After the completion of the culture, 20 μL of MTT was added to each well, and the culture was continued for 4 h. Finally, all the solutions in each well were discarded, 100 μL of DMSO was added to each well, and the mixture was shaken and detected by a microplate reader for OD value at 570 nm. 5 parallels were preformed for per well.

[1] = test system: IL-1β production by mouse peritoneal macrophages; test: IL-1β production by mouse peritoneal macrophages (ELISA); assay type: cell-based; details: dose 20 μg/mL
Description: (1) IL-1β production: mice were intraperitoneally injected with 1 mL of broth medium containing 6% starch, and three days later, the mouse peritoneal macrophages were aseptically taken, washed twice with a 1640 medium, and the cell concentration was adjusted to 2×10^6 cells/mL, inoculated into a 24-well culture plate at 1 mL/well, incubated for 3 h in a cell incubator, and shaken once every 30 min, so that the cells were allowed to adhere sufficiently. Then, the cells were washed twice with a culture liquid to remove un-adhered cells. […] The supernatant was taken as a sample for testing activity of IL-1β.
(2) Determination of IL-1β content: the detection was performed by using mouse IL-1β enzyme-linked immunosorbent assay kit from R&D company. According to the instructions of the kit, the procedures were as follows: the reaction well for the test samples and different concentrations of standards were sealed with sealing tapes, respectively, incubation was performed at 37° C. for 90 min; the plate was washed four times; a biotinylated antibody working solution (100 μL/well) was added, the reaction well was sealed with sealing tapes, and incubation was performed at 37° C. for 60 min; the plate was washed four times; an enzyme conjugate working solution (100 μL/well) was added, the reaction well was sealed with sealing tapes, incubation was performed at 37° C. for 30 min; the plate was washed four times; a developer (100 μL/well) was added, incubation was performed at 37° C. for 10 to 20 min, a stop solution (100 μL/well) was added and mixed and the OD450 value was measured.

[2] = test system: peritoneal capillary permeability in mice; test: Peritoneal capillary permeability in mice (HAc, Evans blue); assay type: in vivo; details: mice, dose 10 mg/kg
Description: The drug was administered once by injection (EDSM needed to be administered twice a day), and the blank model group was given an equal volume of physiological saline and fed normally. On the 5th day, a 5 g/L Evans blue physiological saline solution was injected into the tail vein at […], followed by intraperitoneal injection ([…]) of a HAc solution (6 mL/L) to induce inflammation. After 20 min, the mice were sacrificed by cervical dislocation. 5 mL of physiological saline was intraperitoneally injected, the abdomen was gently rubbed for 2 min, the abdominal cavity was cut, a peritoneal washing solution was collected and centrifuged at 4000 rpm for 10 min, 1 mL of supernatant was taken, and 3 mL of physiological saline was added to obtain 4 mL of dilution. The absorbance OD value of the dilution was measured by an ultraviolet spectrophotometer at a wavelength of 590 nm, and the amount of pigment exudation was expressed by the OD590 nm value, and the peritoneal capillary permeability in mice was examined.

[3] = test system: toe swelling in rat induced by carrageenan; test: Acute inflammation of toe swelling in rat induced by carrageenan; assay type: in vivo; details: 10 mg/kg (positive control), rat foot
Description: 80 SD rats were randomly divided into 8 groups with 10 mice for each group. […] The drug was administered once by injection, and the model group was given an equal volume of physiological saline and fed normally. On the third day, 0.1 mL of 1% carrageenan was injected subcutaneously into the right hind toes of the rats to induce inflammation. The foot volume was measured at 1 h, 3 h, 5 h, and 7 h after inflammation. The swelling degree of the foot was calculated according to the following formula: the swelling degree of the foot (mL)=the volume of the foot after inflammation—the volume before inflammation. The number of milliliters of spilled liquid was recorded (method: the protruding point of the right joint was circled with a ballpoint pen and used as a measurement mark, and the right hind feet of the rat were sequentially placed in the volume measuring device, so that the hind limbs were exposed outside the cylinder, and the depth of the immersion was limited to the overlap of the circle and the liquid level. After the foot entered the liquid, the liquid level was raised, and the volume of the spilled liquid was the volume of the right hind foot of the rat, and the normal volume of the right hind foot of each rat is sequentially determined).

[4] = test system: angiogenesis of chicken embryo chorioallantoic membrane; test: Chicken embryo chorioallantoic membrane (CAM) angiogenesis assay; assay type: in vivo; details: 10 μg (positive control), CAM, 72 hours
Text: In this study, CAM assay was used to investigate the activity of fusion protein I, protein II, protein III, protein IV, and protein V to inhibit angiogenesis in vivo. The study has shown that the biosynthesis rate of collagen reached the maximum on the 8th to 11th day of chicken embryo development, which was the most vigorous stage of angiogenesis, and the body's immune system had not yet been fully established at that time, and thus the chicken embryos developed to the 8th day was selected to be administered. […] The following steps were used.
(1) The White Leghorn chicken embryos on day 6 were cultured in a 37° C. incubator at 60%-70% humidity for two days.
(2) A 1.0 cm×1.0 cm window was drilled above the chicken embryo air sac, and the inner membrane was torn off with forceps to expose the chorioallantoic membrane. Lens paper having a diameter of 5 mm was used as a loading carrier, and was placed on the chorioallantoic membrane of the chicken embryo air sac. Filter paper with PBS was used as a blank group, and the administration group was added with different doses of fusion protein.
(3) The chicken embryo air sac was sealed with a sterile transparent tape, and after culturing at 37° C. for 72 hours, the chicken embryo air sac was opened, and a fixative (formaldehyde:acetone=1:1) was added for fixation for 15 minutes. The chorioallantoic membrane to which the lens paper was adhered was taken out, the distribution of the new blood vessels was observed, and the new blood vessels were counted and photographed. Five replicates were set for each dose and the results were statistically analyzed.

Molecule	A570 nm/A630 nm (mouse spleen lymphocytes)	PI (%) (mouse spleen lymphocytes)	IL-1β [1]	PI (%) [1]	Exudation rate (OD590) [2]	Swelling degree 1 h ([3]; 1 h after carrageenan)	Swelling degree 3 h ([3]; 3 h after carrageenan)	Swelling degree 5 h ([3]; 5 h after carrageenan)	Swelling degree 7 h ([3]; 7 h after carrageenan)	Blood vessel number [4]
C[C@@H]1C[C@H]2[C@@H]3CCC4=CC(=O)C=C[C@]4(C)[C@@]3(F)[C@@H](O)C[C@]2(C)[C@@]1(O)C(=O)CO [Dex, dexamethasone, reference compound]	0.3401 ± 0.1131	41.19%	310.25 ± 20.32 pg/mL	63.36%	0.22 ± 0.03	0.21 ± 0.11 mL	0.23 ± 0.04 mL	0.25 ± 0.09 mL	0.27 ± 0.12 mL	
Avastin: positive control group in HRCEC and CAM assays [reference compound]										57 ± 16
